In paper PMC8457056, “Remodeling of the Fibrillation Pathway of α‐Synuclein by Interaction with Antimicrobial Peptide LL‐III” (Chemistry (Weinheim an Der Bergstrasse, Germany), 2021):

Assay: circular dichroism spectroscopy of LL-III
Assay type: physicochemical
Details: 300 μM LL-III; 20 mM sodium acetate, pH 5.0, 25 °C; minimum around 195 nm
Procedure: Figure 2 A) Binding isotherm obtained by means of steady‐state fluorescence anisotropy measurements. The experiment was performed by titrating a 4 μM solution of carboxyfluorescein‐labeled LL‐III with a solution of α‐Syn in the range 0–100 μM. The red line represents the best fit according to a 1 : 1 binding model.[29] The fluorophore was covalently attached to the N‐terminus of the peptide. B) Circular dichroism (CD) spectra of LL‐III (black solid line), α‐Syn (red solid line,) and of a mixture of LL‐III and α‐Syn (blue solid line) recorded at day 0. Shown are also spectra of the LL‐III/α‐Syn mixture recorded after 5 days (dashed blue line) and after 10 days (dotted blue lines). Here, the concentration of LL‐III was 300 μM, and the concentration of α‐Syn was 30 μM. […]
Next, by means of circular dichroism (CD) spectroscopy, we explored the effect of LLPS formation and LL‐III partitioning on the conformation of the protein. […] In support of this conclusion, we note that the spectrum of the mixture is superimposable with the sum of the spectra of LL‐III and α‐Syn, which were recorded separately (Figure S6). The time evolution of the CD spectrum of the LL‐III/α‐Syn mixture was also recorded after 5 and 10 days (Figure 2B). […]
µM) and following the anisotropy changes of the Trp residue. […] The anisotropy was evaluated at 354 nm which corresponds to the maximum of emission of the free peptide. […]

Q: For NH2-VNWKKIL GKIIKVVK -CONH2 [LL‐III], which “conformation (CD)” value is on record?
A: random‐coiled conformation in solution
